# Reference: patent publication US20030104099A1, “Mineral delivery systems and methods” (priority 2001, published 2003)
# Read-outs that look alike come from different tables or passages of the source.
# Columns and labels:
# [1] = for solids in 25 grams of the filtered solution after drying: 2 grams acid + 2 grams calcium carbonate in 50 grams distilled water, four hours, 25 grams dried; for water solubility at ambient: distilled water
# Protocol: To a 250 ml beaker, 2 grams of adipic acid powder is dissolved in 50 grams of distilled water. Then, 2 grams of calcium carbonate powder (Vicron 25-11 FG from Specilaty Minerals, Inc.) are added. […] After four hours, the slurry is filtered through a filter paper.
# To a 250 ml beaker, 2 grams of tartaric acid powder is dissolved in 50 grams of distilled water. Then, 2 grams of calcium carbonate powder are added. […] After four hours, the slurry is filtered through a filter paper.
# To a 250 ml beaker, 2 grams of malic acid powder is dissolved in 50 grams of distilled water. Then, 2 grams of calcium carbonate powder are added. […] After four hours, the slurry is filtered through a filter paper.
# To a 250 ml beaker, 2 grams of citric acid powder is dissolved in 50 grams of distilled water. Then, 2 grams of calcium carbonate powder are added. […] After four hours, the slurry is filtered through a filter paper.
# To a 250 ml beaker, 2 grams of fumaric acid powder is dissolved in 50 grams of distilled water. Then, 2 grams of calcium carbonate powder are added. […] After four hours, the slurry is filtered through a filter paper.
# [2] = 120 grams distilled water, 3 grams acid, 39° C., 50 rpm, 30 minutes mixing, dried at 110° C.
SMILES,solids in 25 grams of the filtered solution after drying [1] [grams],water solubility at ambient [1] [%],solubility in methanol (solids from ALPHA GRANDE bubble gum base fluid),solubility in methanol (solids from DREYCO gum base fluid),soluble calcium salt contained in the fluid ([2]; 75 grams ALPHA GRANDE bubble gum base) [%],soluble calcium salt contained in the fluid ([2]; 75 grams DREYCO gum base) [%]
O=C([O-])/C=C/C(=O)[O-].[Ca+2] [Calcium fumarate],0.6,2.4,not soluble,not soluble,1.19,1.46
O=C([O-])CC(O)C(=O)[O-].[Ca+2] (stereo not drawn) [Calcium malate],0.5,2.0,–,–,–,–
O=C([O-])C(O)C(O)C(=O)[O-].[Ca+2] (stereo not drawn) [Calcium tartrate],0.15,–,–,–,–,–
